Earlier results as cited in patent publication US5792763A, “Serotonin 5-HT1F agonists” (Eli Lilly and Company, priority 1997, dated 1998).

Tests used:
[1] = background section
[2] = test system: cephalic vascular smooth muscle; settings: background section
[3] = test system: neurogenic inflammation; settings: background section
[4] = background section; remark: listed apart in the source

crossing of the blood-brain barrier [1]: does not cross the blood-brain barrier
Structure (SMILES): CNS(=O)(=O)Cc1ccc2[nH]cc(CCN(C)C)c2c1 [sumatriptan]
contraction of cephalic vascular smooth muscle [2]: contract cephalic vascular smooth muscle
blockade of neurogenic inflammation [3]: blocked
effectiveness in the treatment of migraine [4]: effective in the treatment of migraine
